Experimental data from ChEMBL document CHEMBL5230110, “FabI (enoyl acyl carrier protein reductase) - A potential broad spectrum therapeutic target and its inhibitors” (Eur J Med Chem, 2020).
In brackets after ≈: the same amount, converted by molar mass.

Columns and labels:
[1] = Inhibition of Plasmodium falciparum NF54 HDAC using extract measured after 60 mins by fluorescence assay
[2] = Inhibition of Pseudomonas fluorescens FabG assessed as inhibition
[3] = Inhibition of Pseudomonas fluorescens FabI assessed as inhibition
[4] = tested on: Escherichia coli; test: Antibacterial activity against Escherichia coli ATCC 8730 assessed as inhibition of bacterial growth; type: functional
[5] = tested on: Bacillus subtilis; test: Antibacterial activity against Bacillus subtilis ATCC 60511 assessed as reduction in bacterial growth at 25 ug/ml measured after 24 hrs serial dilution method; type: functional; settings: dose 25 µg/ml
[6] = tested on: Staphylococcus aureus; test: Antibacterial activity against Staphylococcus aureus ATCC 11632 assessed as reduction in bacterial growth at 25 ug/ml measured after 24 hrs serial dilution method; type: functional; settings: dose 25 µg/ml
[7] = tested on: Vibrio cholerae; test: Antibacterial activity against Vibrio cholerae; type: functional
[8] = biological target: T1, Enoyl-[acyl-carrier-protein] reductase [NADH] FabI (Escherichia coli K-12, UniProt P0AEK4); test: Inhibition of Escherichia coli DH5alpha FabI in the presence of NADH using crotonyl CoA as substrate by measuring NADH consumption rate
T1 sequence (P0AEK4 whole entry): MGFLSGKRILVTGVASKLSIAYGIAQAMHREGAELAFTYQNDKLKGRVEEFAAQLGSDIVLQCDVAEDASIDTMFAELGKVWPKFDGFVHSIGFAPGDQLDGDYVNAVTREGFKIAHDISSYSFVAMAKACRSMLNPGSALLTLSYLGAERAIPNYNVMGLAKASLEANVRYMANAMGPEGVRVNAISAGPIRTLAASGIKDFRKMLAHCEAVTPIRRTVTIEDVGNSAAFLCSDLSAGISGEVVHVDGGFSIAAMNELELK

[9] = biological target: T2, Enoyl-[acyl-carrier-protein] reductase [NADPH] FabI (Staphylococcus aureus, UniProt Q6GI75); test: Inhibition of Staphylococcus aureus ATCC 29213 FabI in the presence of NADH using crotonyl CoA as substrate by measuring NADH consumption rate
T2 sequence (Q6GI75 whole entry): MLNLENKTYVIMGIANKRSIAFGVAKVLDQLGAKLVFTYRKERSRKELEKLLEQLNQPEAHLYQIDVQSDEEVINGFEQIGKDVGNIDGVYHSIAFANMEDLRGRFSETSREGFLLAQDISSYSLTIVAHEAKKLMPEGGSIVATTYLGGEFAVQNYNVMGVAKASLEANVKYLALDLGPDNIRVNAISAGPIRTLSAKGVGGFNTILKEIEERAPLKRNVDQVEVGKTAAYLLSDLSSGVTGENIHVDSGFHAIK

[10] = tested on: Staphylococcus aureus; test: Antibacterial activity against Methicillin-resistant Staphylococcus aureus N315 assessed as reduction in bacterial growth; type: functional
[11] = tested on: Escherichia coli; test: Antibacterial activity against Escherichia coli assessed as inhibition of LPS biosynthesis; type: functional
[12] = tested on: Mycobacterium tuberculosis; test: Antimycobacterial activity against Mycobacterium tuberculosis H37Rv; type: functional
[13] = tested on: Mycobacterium tuberculosis; test: Antimycobacterial activity against Mycobacterium tuberculosis H37Rv after 14 days; type: functional; settings: 336 h, time 14 day
[14] = biological target: T2, Enoyl-[acyl-carrier-protein] reductase [NADPH] FabI; test: Inhibition of Staphylococcus aureus FabI in the presence of NADH using crotonyl CoA as substrate by measuring NADH consumption rate
[15] = biological target: T1, Enoyl-[acyl-carrier-protein] reductase [NADH] FabI; test: Inhibition of Escherichia coli FabI in the presence of NADH using crotonyl CoA as substrate by measuring NADH consumption rate
[16] = tested on: Moraxella catarrhalis; test: Antibacterial activity against Moraxella catarrhalis assessed as inhibition in bacterial growth measured after 24 hrs by broth microdilution method; type: functional
[17] = tested on: Staphylococcus aureus; test: Antibacterial activity against Staphylococcus aureus assessed as inhibition of bacterial growth measured after 24 hrs; type: functional
[18] = tested on: Staphylococcus aureus; test: Antibacterial activity against Methicillin-resistant Staphylococcus aureus ATCC 33592 assessed as bacterial growth inhibition measured after 24 hrs by broth dilution method; type: functional
[19] = tested on: Staphylococcus aureus; test: Antibacterial activity against quinolone-resistant Staphylococcus aureus; type: functional

C=C1C(=O)OC[C@H]1C(O)/C=C(\C)CC(=O)C=C(C)C (some centres not stated)
IC50 [1]: 20 µg/mL (≈ 75.7 µM)
IC50 [2]: 75 µg/mL (≈ 284 µM)
IC50 [3]: 20 µg/mL (≈ 75.7 µM)

O=C(NN1C(=O)CC1c1cc2cc(Br)ccc2nc1Cl)c1ccncc1 (configuration not stated)
MIC [4]: 0.4 µg/mL (≈ 0.927 µM)
MIC [5]: 12.5 µg/mL (≈ 29 µM)
MIC [6]: 12.5 µg/mL (≈ 29 µM)
MIC [7]: 0.4 µg/mL (≈ 0.927 µM)

Cc1cccc(Cl)c1Cc1c(Cl)n(Cc2cccc(Cl)c2)ccc1=O
IC50 [8]: 340 nM
IC50 [9]: 340 nM
MIC90 [10]: 0.5 µg/mL (≈ 1.27 µM)

CCCS(=O)(=O)N1N=Cc2cc(C)sc2B1O
MIC [11]: 1.25 µg/mL (≈ 4.59 µM)

COc1nc2ccc(C)cc2cc1C1CC(=O)N1NC(=O)c1ccc(-n2cccc2)cc1 (configuration not stated)
MIC [4]: 0.4 µg/mL (≈ 0.938 µM)
MIC [5]: 12.5 µg/mL (≈ 29.3 µM)
MIC [6]: 12.5 µg/mL (≈ 29.3 µM)
MIC [7]: 0.4 µg/mL (≈ 0.938 µM)

Cc1cccc(Cl)c1Cc1c(Cl)n(Cc2cccs2)ccc1=O
IC50 [8]: 400 nM
IC50 [9]: 350 nM
MIC90 [10]: 2 µg/mL (≈ 5.49 µM)

COc1nc2ccc(Br)cc2cc1C1CC(=O)N1NC(=O)c1ccncc1 (configuration not stated)
MIC [4]: 0.4 µg/mL (≈ 0.936 µM)
MIC [5]: 3.12 µg/mL (≈ 7.31 µM)
MIC [6]: 3.12 µg/mL (≈ 7.31 µM)
MIC [7]: 0.4 µg/mL (≈ 0.936 µM)

CCCCCCCCCCCCCCCCc1cc(OC2OC(CO)C(O)C(O)C2O)cc(O)c1C(=O)Oc1cc(C)c(C(=O)O)c(O)c1 (configuration not stated)
IC50 [9]: 3200 nM

COc1nc2ccc(Br)cc2cc1/C=N/NC(=O)c1ccc(-n2cccc2)cc1
MIC [12]: 1.6 µg/mL (≈ 3.56 µM)

Oc1cc(Cn2cc(C3CC3)nn2)ccc1Oc1ccccc1Cl
MIC [13]: 0.156 µg/mL (≈ 0.456 µM)

C=C1C(=O)OC[C@H]1C(/C=C(\C)CC(=O)C=C(C)C)OC(C)=O (some centres not stated)
IC50 [2]: 50 µg/mL (≈ 163 µM)
IC50 [3]: 25 µg/mL (≈ 81.6 µM)

COc1nc2ccc(C)cc2cc1/C=N/NC(=O)c1ccc(-n2cccc2)cc1
MIC [12]: 1.6 µg/mL (≈ 4.16 µM)

CC(C)CCCC/C=C\CCCCCCCC(=O)O
IC50 [14]: 16300 nM

Cc1ccc(Cn2cnc(-c3ccsc3)c2)cc1
IC50 [14]: 360 nM
IC50 [15]: 3920 nM

COc1ccc(-c2cn(Cc3ccc(C)cc3)cn2)cc1
IC50 [14]: 250 nM
IC50 [15]: 6440 nM

O=C(c1ccc(O)cc1)N1CCc2c(n(Cc3ccc(O)cc3)c3ccccc23)C1
MIC [16]: 8 µg/mL (≈ 20.1 µM)
MIC [17]: 0.5 µg/mL (≈ 1.25 µM)

Cc1ccc(C(=O)N2CCc3c(n(Cc4ccc(O)cc4)c4ccccc34)C2)c(O)c1
MIC [16]: 4 µg/mL (≈ 9.7 µM)
MIC [17]: 1 µg/mL (≈ 2.42 µM)

CC1CC(=O)c2c(cc3c(-c4c(O)cc(O)c5c(O)c6c(cc45)OC(C)CC6=O)c(O)cc(O)c3c2O)O1 (configuration not stated) [CEPHALOCHROMIN]
IC50 [8]: 1800 nM
IC50 [9]: 1900 nM

Cc1c(N)cccc1Cn1ccc(OCCc2cccs2)cc1=O [CG-400549]
MIC [18]: 0.25 µg/mL (≈ 0.734 µM)
MIC90 [10]: 0.25 µg/mL (≈ 0.734 µM)

CN1C(=O)[C@@H](c2cc(Cl)c(O)c(Cl)c2)NC(=O)[C@@H]2NC(=O)[C@@H](c3cc(Cl)c(O)c(Cl)c3)NC(=O)[C@H](NC(=O)C(=O)c3cc(Cl)c(O)c(Cl)c3)Cc3c[nH]c4c(cccc34)-c3cc2cc(c3O)Oc2ccc(cc2)C[C@H]1C(=O)N[C@@H](C(=O)O)c1ccc(O)cc1 [CHLOROPEPTIN]
IC50 [9]: 300 nM
MIC [19]: 4 µg/mL (≈ 3.01 µM)

CN1C(=O)[C@@H](c2cc(Cl)c(O)c(Cl)c2)NC(=O)[C@@H]2NC(=O)[C@@H](c3cc(Cl)c(O)c(Cl)c3)NC(=O)[C@H](NC(=O)C(=O)c3cc(Cl)c(O)c(Cl)c3)CC3C(=O)Nc4cc(ccc43)-c3cc2cc(c3O)Oc2ccc(cc2)C[C@H]1C(=O)N[C@@H](C(=O)O)c1ccc(O)cc1 (some centres not stated) [COMPLESTATINS A]
IC50 [9]: 600 nM
MIC [19]: 4 µg/mL (≈ 2.97 µM)

CC(C)=CCc1c(O)cc(-c2cc3ccc(O)cc3o2)cc1O [MORACIN C]
MIC [17]: 32 µg/mL (≈ 103 µM)

CC(=O)c1cc2c(=O)c3c(C(=O)O)c(O)c(O)cc3oc2c(C(C)=O)c1-c1coc2cc(O)c(O)c(C(=O)O)c2c1=O [VINAXANTHONE]
IC50 [9]: 900 nM
